Activity calls are given as the source filed them. The calls are words filed in the database; no cut-off is given here.
Tests used:
PANC-1 [1] = assay: Cytotoxicity against human PANC-1 cells by MTT assay; format: functional, cell-based
SU.86.86 = assay: Cytotoxicity against human SU-86-86 cells by MTT assay; format: functional, cell-based
[2] = Cytotoxicity against mouse KPC2 cells by MTT assay; format: functional, cell-based
CT26 [3] = assay: Synergistic antiproliferative activity against mouse CT26 cells at 0.01 to 3 uM in presence of MRTX1133; format: functional, cell-based; settings: dose 0.01-3 µM
HCT-116 [4] = assay: Synergistic antiproliferative activity against human HCT-116 cells assessed as inhibition of colony formation at up to 10 uM in presence of TTM; format: functional, cell-based
MIA PaCa-2 [5] = assay: Synergistic antiproliferative activity against human MIA PaCa-2 cells assessed as inhibition of colony formation at up to 1 uM in presence of FeCl3; format: functional, cell-based
MIA PaCa-2 [6] = assay: Synergistic antiproliferative activity against human MIA PaCa-2 cells assessed as inhibition of colony formation at up to 1 uM in presence of ZnCl2; format: functional, cell-based
HCT-116 [7] = assay: Synergistic antiproliferative activity against human HCT-116 cells assessed as inhibition of colony formation at up to 1 uM incubated for 6 days in presence of LY2603618; format: functional, cell-based; settings: time 6.0 day
HCT-116 [8] = assay: Synergistic antiproliferative activity against human HCT-116 cells assessed as inhibition of colony formation at up to 1 uM incubated for 6 days in presence of napabucasin; format: functional, cell-based; settings: time 6.0 day
HCT-116 [9] = assay: Synergistic antiproliferative activity against human HCT-116 cells assessed as inhibition of colony formation at up to 1 uM incubated for 6 days in presence of CC-115; format: functional, cell-based; settings: time 6.0 day
MIA PaCa-2 [10] = assay: Synergistic antiproliferative activity against human MIA PaCa-2 cells assessed as inhibition of colony formation at up to 1 uM incubated for 6 days in presence of celecoxib; format: functional, cell-based; settings: time 6.0 day
Panc02 = assay: Synergistic antiproliferative activity against mouse Panc02 cells assessed as inhibition of colony formation at up to 1 uM incubated for 6 days in presence of celecoxib; format: functional, cell-based; settings: time 6.0 day
HCT-116 [11] = assay: Synergistic antiproliferative activity against human HCT-116 cells assessed as inhibition of colony formation at up to 1 uM incubated for 6 days in presence of valdecoxib; format: functional, cell-based; settings: time 6.0 day
MIA PaCa-2 [12] = assay: Synergistic antiproliferative activity against human MIA PaCa-2 cells assessed as inhibition of colony formation at up to 1 uM incubated for 6 days in presence of MK-663; format: functional, cell-based; settings: time 6.0 day
MIA PaCa-2 [13] = assay: Synergistic antiproliferative activity against human MIA PaCa-2 cells assessed as inhibition of colony formation at up to 1 uM incubated for 6 days in presence of lumira-coxib; format: functional, cell-based; settings: time 6.0 day
BXPC-3 [14] = assay: Synergistic antiproliferative activity against human BXPC-3 cells assessed as inhibition of colony formation at up to 1 uM incubated for 6 days in presence of valdecoxib; format: functional, cell-based; settings: time 6.0 day
PANC-1 [15] = assay: Synergistic antiproliferative activity against human PANC-1 cells assessed as inhibition of colony formation at up to 1 uM incubated for 6 days in presence of valdecoxib; format: functional, cell-based; settings: time 6.0 day
HCT-116 [16] = assay: Cytotoxicity against human HCT-116 cells assessed as cell death up to 1 uM incubated for 6 days in presence of NAC; format: functional, cell-based; settings: time 6.0 day
BXPC-3 [17] = assay: Induction of apoptosis in human BXPC-3 cells assessed as increase in clonogenic survival up to 0.5 uM incubated for 6 days in presence of Z-VAD-FMK by crystal violet staining based analysis; format: functional, cell-based; settings: time 6.0 day
PANC-1 [18] = assay: Antiproliferative activity against human PANC-1 cells assessed as cell death incubated for 6 hrs in presence of NS3694; format: functional, cell-based
MIA PaCa-2 [19] = assay: Induction of apoptosis in human MIA PaCa-2 cells assessed as upregulation of cleaved PARP level at 10 uM measured for 48 hrs by Western blot analysis; format: functional, cell-based
HCT-116 [20] = assay: Induction of ferroptosis in human HCT-116 cells at up to 1 uM in presence of erastin; format: functional, cell-based
HCT-116 [21] = assay: Induction of ferroptosis in human HCT-116 cells assessed as cell death at up to 1 uM in presence of […]; format: functional, cell-based
MIA PaCa-2 [22] = assay: Induction of ferroptosis in human MIA PaCa-2 cells assessed as cell death at up to 1 uM in presence of […]; format: functional, cell-based
HCT-116 [23] = assay: Induction of ferroptosis in human HCT-116 cells assessed as change in GPX4 level at 5 to 10 uM incubated for 18 hrs by Western blot analysis; format: functional, cell-based; settings: dose 5-10 µM
HCT-116 [24] = assay: Induction of autophagy in human HCT-116 cells assessed as cell death at up to 1 uM incubated for 6 days in presence of chloroquine; format: functional, cell-based; settings: time 6.0 day
HCT-116 [25] = assay: Induction of autophagy in human HCT-116 cells assessed as cell death at up to 1 uM incubated for 6 days in presence of MRT68921; format: functional, cell-based; settings: time 6.0 day
[26] = Cmax in CD-1 mouse at 15 mg/kg, iv measured up to 24 hrs by LC-MS/MS analysis; format: ADME, organism-based; settings: in vivo
[27] = AUC in CD-1 mouse at 15 mg/kg, iv measured up to 24 hrs by LC-MS/MS analysis; format: ADME, organism-based; settings: in vivo
[28] = AUC in CD-1 mouse at 30 mg/kg, po measured up to 24 hrs by LC-MS/MS analysis; format: ADME, organism-based; settings: in vivo
[29] = AUC (0 to infinity) in CD-1 mouse at 30 mg/kg, po measured up to 24 hrs by LC-MS/MS analysis; format: ADME, organism-based; settings: in vivo
[30] = Half life in CD-1 mouse at 15 mg/kg, iv measured up to 24 hrs by LC-MS/MS analysis; format: ADME, organism-based; settings: in vivo
[31] = Clearance in CD-1 mouse at 15 mg/kg, iv measured up to 24 hrs by LC-MS/MS analysis; format: ADME, organism-based; settings: in vivo
[32] = Volume of distribution at steady state in CD-1 mouse at 15 mg/kg, iv measured up to 24 hrs by LC-MS/MS analysis; format: ADME, organism-based; settings: in vivo, read-out: Vdss
[33] = Toxicity in C57BL/6 mouse assessed as body weight loss at 20 to 40 mg/kg, ip administered for 28 days; format: organism-based; settings: in vivo, 672 h, dose 20-40 mg/kg, time 28 day
[34] = Drug concentration in mouse plasma at 15 mg/kg, iv measured at 7 hrs; format: ADME, organism-based
[35] = Drug concentration in mouse plasma at 15 mg/kg, iv measured at 24 hrs; format: ADME, organism-based
[36] = Drug concentration in mouse heart at 30 mg/kg, po measured at 7 hrs; format: ADME, organism-based; settings: read-out: Ct
CT26 [37] = assay: Antitumor activity against mouse CT26 cells implanted in BALB/c mouse assessed as increase in cleaved PARP level at 140 mg/kg, iv administered for 3 days; format: functional, organism-based; settings: time 3.0 day
[38] = Toxicity in BALB/c mouse assessed as spleen damage at 20 mg/kg, po measured after 29 days by H and E staining based analysis; format: organism-based; settings: in vivo, 696 h, time 29 day
[39] = Toxicity in BALB/c mouse assessed as colon damage at 20 mg/kg, po measured after 29 days by H and E staining based analysis; format: organism-based; settings: in vivo, 696 h, time 29 day
CT26 [40] = assay: Antitumor activity against mouse CT26 cells implanted in BALB/c mouse assessed as increase in cleaved PARP level at 50 mg/kg, po measured after 14 days; format: functional, organism-based; settings: time 14.0 day

C[C@@H]1OCC2(CCN(c3cnc(C(=O)Nc4cc(F)cc5cccnc45)cn3)CC2)[C@@H]1N
IC50 (PANC-1 [1]): 2.9 µM
IC50 (SU.86.86): 0.8 µM
IC50 [2]: 1.9 µM
Activity (CT26 [3]): Active
Activity (HCT-116 [4]): Active
Activity (MIA PaCa-2 [5]): Active
Activity (MIA PaCa-2 [6]): Active
Activity (HCT-116 [7]): Active
Activity (HCT-116 [8]): Active
Activity (HCT-116 [9]): Active
Activity (MIA PaCa-2 [10]): Active
Activity (Panc02): Active
Activity (HCT-116 [11]): Active
Activity (MIA PaCa-2 [12]): Active
Activity (MIA PaCa-2 [13]): Active
Activity (BXPC-3 [14]): Active
Activity (PANC-1 [15]): Active
Activity (HCT-116 [16]): Active
Activity (BXPC-3 [17]): Active
Activity (PANC-1 [18]): Active
Activity (MIA PaCa-2 [19]): Active
Activity (HCT-116 [20]): Active
Activity (HCT-116 [21]): inactive
Activity (MIA PaCa-2 [22]): inactive
Activity (HCT-116 [23]): Active
Activity (HCT-116 [24]): Active
Activity (HCT-116 [25]): Active
Cmax [26]: 3.46 µg/mL
AUC at 24 h [27]: 6.01 µg·h/mL
AUC at 24 h [28]: 6.64 µg·h/mL
AUC(0-inf) [29]: 6.8 µg·h/mL
half-life [30]: 2.8 h
clearance [31]: 2.26 L/h/kg
Vd [32]: 7.1 L/kg
Activity [33]: Non-toxic

N[C@@H]1[C@H]2CN(c3cnc(C(=O)Nc4cc(F)cc5cccnc45)cn3)C[C@@H]12
IC50 (PANC-1 [1]): 4.4 µM
IC50 (SU.86.86): 1.1 µM
IC50 [2]: 3.4 µM
Activity (CT26 [3]): Active
Activity (HCT-116 [4]): Active
Activity (MIA PaCa-2 [5]): Active
Activity (MIA PaCa-2 [6]): Active
Activity (HCT-116 [7]): Active
Activity (HCT-116 [8]): Active
Activity (HCT-116 [9]): Active
Activity (MIA PaCa-2 [10]): Active
Activity (Panc02): Active
Activity (HCT-116 [11]): Active
Activity (MIA PaCa-2 [12]): Active
Activity (MIA PaCa-2 [13]): Active
Activity (BXPC-3 [14]): Active
Activity (PANC-1 [15]): Active
Activity (HCT-116 [16]): Active
Activity (BXPC-3 [17]): Active
Activity (PANC-1 [18]): Active
Activity (MIA PaCa-2 [19]): Active
Activity (HCT-116 [20]): Active
Activity (HCT-116 [21]): inactive
Activity (MIA PaCa-2 [22]): inactive
Activity (HCT-116 [23]): Active
Activity (HCT-116 [24]): Active
Activity (HCT-116 [25]): Active
Cmax [26]: 1.62 µg/mL
AUC at 24 h [27]: 3.42 µg·h/mL
AUC at 24 h [28]: 3.78 µg·h/mL
AUC(0-inf) [29]: 3.81 µg·h/mL
half-life [30]: 3 h
clearance [31]: 4.35 L/h/kg
Vd [32]: 14.6 L/kg
concentration at 7 h [34]: 0.098 µg/mL
concentration at 24 h [35]: 0.007 µg/mL
concentration at 7 h [36]: 1840 ng/g
Activity (CT26 [37]): Active
Activity [38]: Non-toxic
Activity [39]: Non-toxic
Activity [33]: Non-toxic
Activity (CT26 [40]): Active

From ChEMBL document CHEMBL6109128, “Copper-KRAS-COX2 Axis: A Therapeutic Vulnerability in Pancreatic Cancer” (J Med Chem, 2025)
